The target in test [1] is Calcium/calmodulin-dependent protein kinase type II subunit gamma (Homo sapiens) (UniProt Q13555). Kind of test: Inhibition of CaMK2g Lys1 labeling site harbouring TSTQEYAAKIINTKK in human Huh-7 cells at 1 uM by KiNativ Profiling analysis relative to control. The class given is cell-based.
Test [2] has as its target T1, Phosphatidylinositol 5-phosphate 4-kinase type-2 beta (Homo sapiens) (UniProt P78356).
T1 sequence (whole entry): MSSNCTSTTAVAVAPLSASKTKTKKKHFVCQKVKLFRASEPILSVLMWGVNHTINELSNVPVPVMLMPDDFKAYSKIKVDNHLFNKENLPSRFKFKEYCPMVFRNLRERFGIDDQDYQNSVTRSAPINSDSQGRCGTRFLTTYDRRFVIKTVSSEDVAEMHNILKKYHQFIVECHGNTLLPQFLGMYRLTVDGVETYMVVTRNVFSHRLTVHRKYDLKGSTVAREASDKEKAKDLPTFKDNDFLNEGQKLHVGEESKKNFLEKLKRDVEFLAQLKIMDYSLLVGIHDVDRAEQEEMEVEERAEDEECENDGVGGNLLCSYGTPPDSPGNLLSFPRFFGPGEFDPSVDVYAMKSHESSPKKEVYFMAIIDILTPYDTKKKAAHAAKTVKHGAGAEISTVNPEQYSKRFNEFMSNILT
Description: Inhibition of PIP4K2B ATP labeling site harbouring AKDLPTFKDNDFLNEGQK in human Huh-7 cell lysate at 1 uM by KiNativ Profiling analysis relative to control. In kind it is subcellular.

Test [3] addresses Rho-associated protein kinase 2 (Homo sapiens) (UniProt O75116). Kind of test: Inhibition of ROCK2 Lys2 labeling site in human Huh-7 cells at 1 uM by KiNativ Profiling analysis relative to control. The class given is cell-based.
For test [4], the target named is T2, Serine/threonine-protein kinase ULK3 (Homo sapiens) (UniProt Q6PHR2).
T2 sequence (whole entry): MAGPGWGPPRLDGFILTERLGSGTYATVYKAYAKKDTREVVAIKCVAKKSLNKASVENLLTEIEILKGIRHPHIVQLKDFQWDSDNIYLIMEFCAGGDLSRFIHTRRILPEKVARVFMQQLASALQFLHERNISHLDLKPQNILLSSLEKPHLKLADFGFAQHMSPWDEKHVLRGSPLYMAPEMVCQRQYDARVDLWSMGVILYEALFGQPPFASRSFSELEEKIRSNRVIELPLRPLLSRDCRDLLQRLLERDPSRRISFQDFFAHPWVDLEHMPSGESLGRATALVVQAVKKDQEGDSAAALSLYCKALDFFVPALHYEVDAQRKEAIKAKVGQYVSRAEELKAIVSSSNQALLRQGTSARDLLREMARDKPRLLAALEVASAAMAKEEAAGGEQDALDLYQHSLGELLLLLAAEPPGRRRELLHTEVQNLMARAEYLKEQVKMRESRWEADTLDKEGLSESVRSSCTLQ
Description: Inhibition of ULK3 Lys1 labeling site in human Huh-7 cell lysate at 1 uM by KiNativ Profiling analysis relative to control. The class given is subcellular.

In test [5] the target is Tyrosine-protein kinase CSK (Homo sapiens, UniProt P41240). Description: Inhibition of CSK ACT labeling site harbouring EASSTQDTGKLPVKWTAPEALR in human Huh-7 cell lysate at 1 uM by KiNativ Profiling analysis relative to control. In kind it is subcellular.
For test [6], the target named is T3, Serine/threonine-protein kinase D2 (Homo sapiens) (UniProt Q9BZL6).
T3 sequence (whole entry): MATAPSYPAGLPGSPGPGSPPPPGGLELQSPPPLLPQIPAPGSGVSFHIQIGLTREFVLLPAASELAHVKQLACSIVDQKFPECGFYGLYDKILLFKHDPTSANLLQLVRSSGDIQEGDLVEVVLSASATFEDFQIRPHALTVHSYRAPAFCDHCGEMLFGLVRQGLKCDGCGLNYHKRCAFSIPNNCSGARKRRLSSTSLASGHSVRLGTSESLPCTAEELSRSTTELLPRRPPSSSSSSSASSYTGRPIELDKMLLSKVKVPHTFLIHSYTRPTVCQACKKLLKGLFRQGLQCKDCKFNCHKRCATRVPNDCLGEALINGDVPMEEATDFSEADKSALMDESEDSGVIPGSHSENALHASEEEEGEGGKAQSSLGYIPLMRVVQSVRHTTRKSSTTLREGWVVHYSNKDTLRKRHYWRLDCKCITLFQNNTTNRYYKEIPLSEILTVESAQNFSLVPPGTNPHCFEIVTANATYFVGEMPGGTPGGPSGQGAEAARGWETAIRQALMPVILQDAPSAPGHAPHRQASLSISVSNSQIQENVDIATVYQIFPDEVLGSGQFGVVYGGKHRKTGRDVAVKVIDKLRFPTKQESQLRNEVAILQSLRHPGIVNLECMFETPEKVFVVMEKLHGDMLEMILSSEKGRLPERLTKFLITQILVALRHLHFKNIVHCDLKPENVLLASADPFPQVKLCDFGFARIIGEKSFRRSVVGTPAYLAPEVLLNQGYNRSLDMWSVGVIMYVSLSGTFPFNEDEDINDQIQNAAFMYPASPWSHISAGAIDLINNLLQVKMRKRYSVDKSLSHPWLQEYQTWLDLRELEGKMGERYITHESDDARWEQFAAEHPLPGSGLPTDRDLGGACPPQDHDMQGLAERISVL
Kind of test: Inhibition of PRKD2 (unknown origin) at 1 uM by Ambit Kinomescan binding assay relative to control.

In test [7] the target is T4, Eukaryotic elongation factor 2 kinase (Homo sapiens) (UniProt O00418).
T4 sequence (whole entry): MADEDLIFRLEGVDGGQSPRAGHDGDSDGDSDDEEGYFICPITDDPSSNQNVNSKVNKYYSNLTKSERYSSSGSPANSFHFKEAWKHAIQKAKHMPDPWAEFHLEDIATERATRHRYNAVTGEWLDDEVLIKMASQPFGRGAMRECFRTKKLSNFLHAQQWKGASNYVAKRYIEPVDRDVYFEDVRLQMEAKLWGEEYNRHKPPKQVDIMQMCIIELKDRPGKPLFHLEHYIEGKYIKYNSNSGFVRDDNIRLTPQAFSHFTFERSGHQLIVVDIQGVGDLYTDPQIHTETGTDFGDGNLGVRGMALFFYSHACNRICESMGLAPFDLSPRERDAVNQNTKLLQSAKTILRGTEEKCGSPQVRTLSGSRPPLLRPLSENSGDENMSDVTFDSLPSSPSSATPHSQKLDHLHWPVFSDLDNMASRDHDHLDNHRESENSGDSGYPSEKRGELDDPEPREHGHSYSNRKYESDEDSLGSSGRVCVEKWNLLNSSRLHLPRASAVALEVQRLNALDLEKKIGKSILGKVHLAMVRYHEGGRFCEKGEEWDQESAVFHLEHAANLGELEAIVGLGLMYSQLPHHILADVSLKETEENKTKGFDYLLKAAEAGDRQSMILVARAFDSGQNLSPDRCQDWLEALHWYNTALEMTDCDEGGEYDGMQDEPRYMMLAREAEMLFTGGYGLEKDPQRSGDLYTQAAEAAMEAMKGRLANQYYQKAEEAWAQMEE
Description: Inhibition of eEF2K ATP labeling site harbouring YIKYNSNSGFVR in human A-375 cells at 0.5 uM by KiNativ Profiling analysis relative to control. In kind it is cell-based.

Sequence of Calcium/calmodulin-dependent protein kinase type II subunit gamma (Homo sapiens) (Q13555 whole entry): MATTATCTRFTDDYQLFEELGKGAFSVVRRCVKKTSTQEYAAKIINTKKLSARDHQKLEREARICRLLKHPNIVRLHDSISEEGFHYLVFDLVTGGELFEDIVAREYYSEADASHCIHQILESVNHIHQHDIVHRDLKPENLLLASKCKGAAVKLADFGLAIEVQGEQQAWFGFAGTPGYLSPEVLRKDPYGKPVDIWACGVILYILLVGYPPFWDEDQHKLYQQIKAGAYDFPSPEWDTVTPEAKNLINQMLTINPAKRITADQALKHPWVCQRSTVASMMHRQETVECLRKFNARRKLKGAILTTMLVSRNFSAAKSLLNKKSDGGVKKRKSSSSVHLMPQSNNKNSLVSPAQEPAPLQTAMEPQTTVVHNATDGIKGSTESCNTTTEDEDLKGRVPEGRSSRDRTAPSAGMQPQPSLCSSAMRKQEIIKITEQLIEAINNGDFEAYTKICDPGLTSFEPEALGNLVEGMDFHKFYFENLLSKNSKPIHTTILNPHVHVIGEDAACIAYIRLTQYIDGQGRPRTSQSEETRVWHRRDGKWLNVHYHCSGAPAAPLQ
Sequence of Rho-associated protein kinase 2 (Homo sapiens) (O75116 whole entry, looked up): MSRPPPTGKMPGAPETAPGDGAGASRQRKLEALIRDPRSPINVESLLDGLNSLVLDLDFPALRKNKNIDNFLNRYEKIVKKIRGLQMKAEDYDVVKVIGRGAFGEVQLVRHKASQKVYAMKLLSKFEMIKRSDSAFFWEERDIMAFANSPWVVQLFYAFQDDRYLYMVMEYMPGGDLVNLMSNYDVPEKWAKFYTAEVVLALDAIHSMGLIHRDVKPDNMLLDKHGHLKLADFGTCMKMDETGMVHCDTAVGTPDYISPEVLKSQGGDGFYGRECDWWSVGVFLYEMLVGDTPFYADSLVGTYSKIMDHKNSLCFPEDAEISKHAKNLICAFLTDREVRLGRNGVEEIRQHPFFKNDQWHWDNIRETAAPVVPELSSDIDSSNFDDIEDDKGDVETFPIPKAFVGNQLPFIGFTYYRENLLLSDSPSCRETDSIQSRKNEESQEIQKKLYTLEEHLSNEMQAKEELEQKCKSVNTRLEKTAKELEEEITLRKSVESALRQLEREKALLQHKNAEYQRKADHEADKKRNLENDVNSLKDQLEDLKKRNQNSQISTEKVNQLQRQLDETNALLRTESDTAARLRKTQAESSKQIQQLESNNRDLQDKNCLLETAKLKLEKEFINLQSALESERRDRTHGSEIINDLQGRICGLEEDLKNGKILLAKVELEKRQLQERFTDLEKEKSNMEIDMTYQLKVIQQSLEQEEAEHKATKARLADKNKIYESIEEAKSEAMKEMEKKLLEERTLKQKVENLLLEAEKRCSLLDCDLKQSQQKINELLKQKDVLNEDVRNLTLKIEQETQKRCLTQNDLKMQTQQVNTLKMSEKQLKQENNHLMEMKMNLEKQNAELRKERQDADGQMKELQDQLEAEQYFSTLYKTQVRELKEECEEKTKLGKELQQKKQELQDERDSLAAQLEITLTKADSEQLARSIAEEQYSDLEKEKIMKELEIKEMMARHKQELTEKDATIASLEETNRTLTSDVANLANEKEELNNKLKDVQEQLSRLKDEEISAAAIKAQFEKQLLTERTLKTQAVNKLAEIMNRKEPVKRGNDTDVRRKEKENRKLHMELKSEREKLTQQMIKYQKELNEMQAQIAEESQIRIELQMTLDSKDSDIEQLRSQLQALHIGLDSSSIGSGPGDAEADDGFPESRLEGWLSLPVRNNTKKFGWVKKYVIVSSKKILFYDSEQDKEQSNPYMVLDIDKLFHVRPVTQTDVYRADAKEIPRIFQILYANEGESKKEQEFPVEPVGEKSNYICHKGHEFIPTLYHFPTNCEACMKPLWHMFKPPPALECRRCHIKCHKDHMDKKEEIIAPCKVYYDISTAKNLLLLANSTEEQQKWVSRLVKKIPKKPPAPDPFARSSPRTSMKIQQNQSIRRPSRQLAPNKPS
Sequence of Tyrosine-protein kinase CSK (P41240 2-450 limits assumed): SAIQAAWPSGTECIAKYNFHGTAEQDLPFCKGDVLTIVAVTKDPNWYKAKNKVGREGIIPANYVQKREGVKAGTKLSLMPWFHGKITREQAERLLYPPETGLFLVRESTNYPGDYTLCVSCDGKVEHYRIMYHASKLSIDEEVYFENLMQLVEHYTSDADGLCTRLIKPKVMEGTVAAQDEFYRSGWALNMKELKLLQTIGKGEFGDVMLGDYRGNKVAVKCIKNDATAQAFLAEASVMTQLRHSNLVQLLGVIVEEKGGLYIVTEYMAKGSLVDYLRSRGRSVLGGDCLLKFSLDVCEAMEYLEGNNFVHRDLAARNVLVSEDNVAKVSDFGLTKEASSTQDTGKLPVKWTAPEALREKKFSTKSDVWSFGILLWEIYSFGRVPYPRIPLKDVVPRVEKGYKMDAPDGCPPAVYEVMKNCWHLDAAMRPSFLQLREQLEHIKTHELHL

As to `CNc1cc(Oc2cc(C(=O)Nc3cc(N4CCN(C)CC4)cc(C(F)(F)F)c3)ccc2C)ncn1`, the inhibition (as a rule, the change of the read-out against control, counted positive when it falls) in test [1] was 31.8%; in test [2] it was -5.5%; in test [3] it was -1%; in test [4] it was -5.1%; in test [5], 0.4%.

Take `CCN1CCN(Cc2ccc(NC(=O)c3ccc(C)c(/C=C/c4cnc5[nH]ccc5c4OC)c3)cc2C(F)(F)F)CC1`: the inhibition in test [6] is 81%; in test [7] it was -8.5%.
